In patent US12377095B2, “Use of ligustrazine nitrone derivatives in treatment and prevention of diabetic complication diseases” (QINGDAO HAILAN PHARMACEUTICALS CO., LTD., priority 2019, dated 2025):

Assays:
[1] = test system: cisplatin-induced C57BL/6J mice; experiment: Hepcidin level in cisplatin-induced renal anemia C57BL/6J mice; type: in vivo, mouse; conditions: 60 mg/kg twice/day, 4 weeks, P<0.05
Experimental: Modeling method: the animals were randomly divided into 5 groups, i.e., normal control group, model group, three treatment groups, wherein the normal control group was injected with equal volume of normal saline, the model group and three treatment groups were intraperitoneally injected with cisplatin (CDDP) 5 mg/kg once a week, for 4 weeks.
The route of administration is intragastrical. TBN is administered twice a day (fixed at 9:00-10:00 am and 3:00-4:00 pm), and Roxadustat is administered once every two days (fixed at 9:00-10:00 am), for 4 weeks.
Hepcidin is a cysteine-rich antibacterial polypeptide synthesized and secreted by the liver. It plays a negative regulatory role in the regulation of iron balance in the body and can be used to indirectly evaluate the symptoms of anemia in mice. […] Cisplatin and other chemotherapeutic drugs can cause iron regulation imbalance in mice, and TBN administration can reduce the expression level of iron regulation in the body, and thus can be used to treat cancer complicated renal anemia.

[2] = test system: STZ-induced DKD rats; experiment: Masson staining, interstitial fibrosis index, STZ-induced DKD rats; type: in vivo, rat
Experimental: (§1) Before the injection, the rats were fasted for 12 hours without water. After weighing, the rats were injected with 55 mg/kg STZ intraperitoneally (STZ needs to be injected quickly, and the injection was completed within 10 minutes), and then returned to the cage to ensure that the rats had sufficient drinking water for 24 hours. Rats were injected with an equal volume of citrate buffer (pH 4.5). After STZ injection for 3 weeks, blood was collected from the tail vein, and blood glucose ≥16.7 mmol/L was used as the criteria for the standard of the rats.
(§2) The route of administration is intragastric administration. TBN was administered twice a day (fixed at 9:00-10:00 am and 3:00-4:00 pm), and Losartan was administered once a day (fixed at 9:00-10:00 am) continuously for 6 weeks.
At the end of the experiment, the kidney tissues were quickly separated, fixed with 4% paraformaldehyde and embedded in paraffin, serially sliced, 5 μm each, dried at 37° C. for 1 h, and then subjected to Masson staining. The process is briefly as follows: paraffin sections are taken out of the 65° C. oven and immediately put in xylene for dewaxing and gradient alcohol rehydration, according to the kit instructions, add reagent A (a mixture of equal amounts of A1 and A2) for dyeing for 8 min; then use Reagent B differentiates and reagent C turns blue; reagent D stains for 7 min; reagent E washes for 1 min; reagent F washes for 1 min; reagent G stains for 1 min; dehydrated with 95% ethanol and absolute ethanol, transparent xylene, sealed with neutral gum piece.

[3] = test system: STZ-induced DKD rats; experiment: PAS staining, glomerular sclerosis index, STZ-induced DKD rats; type: in vivo, rat; conditions: all doses of TBN (10, 30, 60 mg/kg twice/day); Losartan 10 mg/kg once/day; 6 weeks; P<0.001 vs Vehicle
Experimental: as §1, §2
At the end of the experiment, kidney tissues were quickly separated, fixed with 4% paraformaldehyde and embedded in paraffin, serially sliced, 5 μm each, dried at 37° C. for 1 h, and then stained with PAS. The process is briefly as follows: paraffin sections are taken out of the 65° C. oven and immediately placed in xylene for deparaffinization and gradient alcohol rehydration, followed by periodic acid treatment for 5 min and Schiff treatment for 10 min, and then differentiation is performed with differentiation solution for 10 s. […]

[4] = test system: spontaneous diabetic model in rhesus monkeys; experiment: Spontaneous diabetic model in rhesus monkeys, serum EPO and iron; type: in vivo
[5] = test system: db/db mice; experiment: Serum iron content of db/db mice; type: in vivo, mouse; set-up: iron content in the serum: unit not given here; conditions: for iron content in the serum: 6 weeks, db/db model group 28.13±4.46
Excerpt: db/db mice are congenital obese type 2 DKD mice with spontaneous mutations in the leptin receptor (Leptin receptor, Lepr) due to a point mutation in the leptin receptor gene GT located on chromosome 4. The course of polyphagia, polyuria, diabetes and hyperglycemia is similar to that of humans, and it is currently the most widely used type 2 spontaneous animal model of DKD. The db/db mice have a series of complications with the aggravation of diabetes. The main pathological changes of renal tissue are the expansion of the glomerular mesangial interstitium, the thickening of the glomerular basement membrane, and the excessive accumulation of extracellular matrix. However, the glomerular mesangium of db/db mice changes relatively slowly, and the glomerular mesangium will not be dissolved or nodular glomerulosclerosis, and there is no progressive renal insufficiency.
Six-week-old db/db mice were purchased, and start the administration after adaptive feeding for 1 week (i.e., 7-week-old). TBN is administered twice a day (fixed by starting from 9:00-10:00 am and 3:00-4:00 pm, with an interval of 6 hours), and the positive control drug Losartan was administered once a day (fixed at 9:00-10:00 am) for 6 weeks.
At the end of the experiment, serum iron content was measured by using automatic biochemical analyzer.

[6] = test system: STZ-induced SHR rats; experiment: Serum iron ion content in STZ-induced SHR rats; type: in vivo, rat; conditions: TBN group (T60), 60 mg/kg
Experimental: 6 W-age SHR rats were abstained from food but not water for 12 h before injection, and then intraperitoneally injected with 55 mg/kg STZ after weighing (STZ required for fast injection, to be completed within 10 min), then put back to the cage to ensure that rat has sufficient drinking water in the period of 24 h, and the rats of normal control group were injected with citric acid buffer (pH 4.5) in the same volume. After 3 weeks of STZ injection, retinal venous blood was collected, and blood glucose ≥16.7 mmol/L was used as a molding standard, where the model of SHR rats that meet the above criteria is considered successful.
The route of administration is intragastrical, TBN is administered twice a day (fixed at 9:00-10:00 am and 3:00-4:00 pm), and Losartan is administered once a day (fixed at 9:00-10:00 am), continuously for 6 weeks.
At the end of the experiment, after rats were anesthetized, blood was taken from the rear abdominal aortic pulse, allowed to stand for 1 h, centrifuged at 3000 rmp centrifuged for 10 min to collect supernatant, and the iron ion content was measured by using an automated biochemical device and the level of red cells in serum was detected by using kits.

Cc1nc(C)c(/C=[N+](\[O-])C(C)(C)C)nc1C [TBN]
level of iron regulation (hepcidin) vs model group [1]: significantly reduced
interstitial fibrosis index ([2]; 60 mg/kg, P<0.01): improved the most significantly
interstitial fibrosis index ([2]; TBN treatment groups (10, 30, 60 mg/kg), dose-dependent): decreased
glomerular sclerosis index [3]: significantly reduce
serum EPO content [4]: increase
serum iron content [4]: increase
iron content in the serum ([5]; 10 mg/kg): 30.84±5.92
iron content in the serum ([5]; 30 mg/kg): 36.20±11.89
effect of increasing iron ions compared with positive control drug ([5]; each dose group of TBN vs Losartan): stronger than the positive control drug group
content of iron ions in serum vs model group [6]: significantly increased
